This note sets out measurements from ChEMBL document CHEMBL1132705, “Synthesis and biological activities of spiroheterocyclic growth hormone secretagogues” (Bioorg Med Chem Lett, 1999).

For the first experiment, the species on record is Canis familiaris. Kind of experiment: Minimum effective dose required for oral activity in beagles that caused at least five fold elevation of growth hormone (GH) over basal levels. Type of experiment: functional. The following applies: Canis lupus familiaris, read-out: MED.
Turning to `CC(C)(N)C(=O)N[C@H](CCCc1ccccc1)C(=O)N1CCC2(CCc3ccccc32)CC1.Cl`, the minimal effective dose was 5 mg/kg.

As to `CC(C)(N)C(=O)N[C@H](CCC1CCCCC1)C(=O)N1CCC2(CC1)CS(=O)(=O)c1ccccc12.Cl`, the minimal effective dose amounted to 0.25 mg/kg. Still for that read-out and setting: next, `CC(C)(N)C(=O)N[C@H](CCCc1ccccc1)C(=O)N1CCC2(CC1)C[S+]([O-])c1ccccc12.Cl` (stereo partly specified): 0.25 mg/kg; `CC(C)(N)C(=O)N[C@H](CCCc1ccccc1)C(=O)N1CCC2(CC1)CS(=O)(=O)c1ccccc12.Cl`: 0.125 mg/kg.

For another experiment, the species on record is Rattus norvegicus. Description: Stimulation of growth hormone (GH) release determined in vitro by rat pituitary cell assay. Particulars: Pituitary gland cell. The experiment is classed as functional.
A word on the EC50: it is the midpoint of the concentration-response curve. A lower EC50 goes with higher potency in that assay. As for `CC(C)(N)C(=O)N[C@H](CCc1ccccc1)C(=O)N1CCC2(CCc3ccccc32)CC1`, a half-maximal response (EC50) required 22 nM. The same measure, in the same setting: next, `CC(C)(N)C(=O)N[C@H](CCc1ccccc1)C(=O)N1CCC2(CC1)CSc1ccccc12`: 57 nM; `CC(C)(N)C(=O)N[C@H](CCC1CCCCC1)C(=O)N1CCC2(CCc3ccccc32)CC1`: 21 nM. In turn, `CC(C)(N)C(=O)N[C@H](COCc1ccccc1)C(=O)N1CCC2(CC1)COc1ccccc12` registered an EC50 of 8.5 nM.

`CC(C)(N)C(=O)N[C@H](CCCc1ccccc1)C(=O)N1CCC2(CC1)CSc1ccccc12` yielded an EC50 of 4.8 nM.

Regarding `CC(C)(N)C(=O)N[C@H](Cc1c[nH]c2ccccc12)C(=O)N1CCC2(CC1)CSc1ccccc12`, it took 5.6 nM to reach a half-maximal effect (EC50). The same measure, in the same setting: next, `CC(C)(N)C(=O)N[C@H](CCc1ccccc1)C(=O)N1CCC2(CC1)CS(=O)(=O)c1ccccc12`: 6 nM; `CC(C)(N)C(=O)N[C@H](CCC1CCCCC1)C(=O)N1CCC2(CC1)CS(=O)(=O)c1ccccc12.Cl`: 1.4 nM.

Compound `CC(C)(N)C(=O)N[C@H](CCCc1ccccc1)C(=O)N1CCC2(CC1)COc1ccccc12` displayed a half-maximal effective concentration (EC50) of 2.7 nM. On to `CC(C)(N)C(=O)N[C@H](CCCc1ccccc1)C(=O)N1CCC2(CC1)C[S+]([O-])c1ccccc12.Cl` (stereo partly specified), for which it took 2 nM to reach a half-maximal effect (EC50). Still for that read-out and setting: then `CC(C)(N)C(=O)N[C@H](CCC1CCCCC1)C(=O)N1CCC2(CC1)C[S+]([O-])c1ccccc12` (stereo partly specified), with 3.4 nM; and `CC(C)(N)C(=O)N[C@H](COCc1ccccc1)C(=O)N1CCC2(CC1)CSc1ccccc12`, with 10 nM.

Regarding `CC(C)(N)C(=O)N[C@H](COCc1ccccc1)C(=O)N1CCC2(CC1)CS(=O)(=O)c1ccccc12`, a half-maximal response (EC50) required 5 nM. On the same count and under the same terms, then `CC(C)(N)C(=O)N[C@H](Cc1c[nH]c2ccccc12)C(=O)N1CCC2(CC1)CS(=O)(=O)c1ccccc12`, with 2.1 nM; and `CC(C)(N)C(=O)N[C@H](CCCc1ccccc1)C(=O)N1CCC2(CC1)CS(=O)(=O)c1ccccc12.Cl`, with 1.1 nM; and `CC(C)(N)C(=O)N[C@H](COCc1ccccc1)C(=O)N1CCC2(CC1)C[S+]([O-])c1ccccc12` (stereo partly specified), with 8.5 nM. `CC(C)(N)C(=O)N[C@H](CCC1CCCCC1)C(=O)N1CCC2(CC1)CSc1ccccc12` returned a concentration for a half-maximal effect (EC50) of 8.1 nM.
